Experimental data: patent US20090227578A1, “Azabenzimidazole Derivatives, Their Manufacture and Use as Anti-Cancer Agents” (priority 2005, published 2009)

What was measured:
[1] = target: T1, Src (p60c-src, partially purified, Upstate) (Homo sapiens, UniProt P12931); experiment: SRC-Inhibitor-Assay, time-resolved fluorescence kinase assay (Src); assay type: biochemical; details: ATP 5 μM; peptide 10 μM; enzyme pre-incubated 15 min at 15° C. with inhibitor
T1 construct: purchased UBI, Upstate Biotech, Inc
T1 sequence (P12931 whole entry): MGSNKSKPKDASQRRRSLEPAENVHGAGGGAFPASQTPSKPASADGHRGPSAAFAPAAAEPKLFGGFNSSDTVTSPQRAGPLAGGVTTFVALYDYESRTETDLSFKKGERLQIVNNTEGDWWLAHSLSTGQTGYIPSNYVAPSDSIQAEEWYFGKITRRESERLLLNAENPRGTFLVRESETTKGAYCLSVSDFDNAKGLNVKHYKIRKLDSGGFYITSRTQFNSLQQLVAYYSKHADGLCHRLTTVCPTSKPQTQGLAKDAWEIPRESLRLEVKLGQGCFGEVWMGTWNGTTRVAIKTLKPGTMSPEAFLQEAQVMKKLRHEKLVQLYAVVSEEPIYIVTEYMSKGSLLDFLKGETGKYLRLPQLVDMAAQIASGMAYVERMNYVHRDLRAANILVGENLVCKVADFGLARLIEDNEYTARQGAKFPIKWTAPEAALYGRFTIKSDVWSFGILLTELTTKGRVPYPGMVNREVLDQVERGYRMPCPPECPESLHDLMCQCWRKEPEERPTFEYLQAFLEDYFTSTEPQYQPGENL
Protocol: (§1) SRC-Inhibitor-Assay Parameters:
(§2) Peptides: Ro: NH2-A-E-E-E-I—Y-G-E-F-E-A-K—K—K—K—CONH2, and
(§3) • Ja133-Ro: Ja133-G-Aminocaprylic acid-A-E-E-E-I—Y-G-E-F-E-A-K—K—K—K—CONH2, wherein Ja133 is LightCycler-Red 640-N-hydroxy succinimide ester; • whereby both peptides were synthesized by an optimized solid phase peptide synthesis protocol (Merrifield, Fed. Proc. Fed. Amer. Soc. Exp. Biol. 21 (1962) 412) on a Zinsser SMP350 peptide synthesizer. Shortly, the peptide was assembled on 160 mg (22.8 μmol scale) of a Rink-Linker modified polystyrene solid phase by repeatedly conjugating an twenty fold excess of amino acids each protected by temporary piperidine labile Fmoc- and permanent acid labile tert-Bu-, BOC- and O-tert-Bu-groups depending on the side chain function. The substrate sequence […] was N-terminal additionally mounted with the spacer amino acids Aminocaprylic acid and Glycin. After cleavage of the N-terminal temporary protecting group the still attached and protected peptide was labeled with a 1.5 fold amount of LightCycler-Red 640-N-hydroxy succinimide ester (purchased from Roche Diagnostics GmbH) and triethylamine. After 3 hrs. the resin was washed with Dimethylformamide and Isopropanol until the eluates of the blue resin got colourless. […] The substrate was finally isolated by a preparative reverse phase HPLC purification.
(§4) ATP, Tween 20, 4-(2-hydroxyethyl)-1-piperazineethanesulfonic acid (HEPES) were purchased from Roche Molecular Biochemicals, MgCl2 and MnCl2 were purchased from Merck Eurolab, Tris(2-carboxyethyl)phosphine hydrochloride (TCEP) was purchased from Pierce, 384 Well low volume fluorescence plates was purchased from Falcon.
(§5) At first the enzyme is pre-incubated for 15 min. at 15° C. in aqueous solution with corresponding amounts of inhibitors according to this invention. Then the phosphorylation reaction is started by adding a reaction mixture, containing ATP, Peptide and PT66, and subsequent shaking. The proceeding of this reaction is immediately monitored using time resolved fluorescence spectroscopy in a suitable well plate reader.
(§6) The IC50-values can be obtained from the reaction rates by using a non-linear curve fit (XLfit software (ID Business Solution Ltd., Guilford, Surrey, UK))

[2] = target: T2, Lck (p56lck, active, Upstate) (Homo sapiens, UniProt P06239); experiment: SRC-Inhibitor-Assay, time-resolved fluorescence kinase assay (Lck); assay type: biochemical; details: ATP 5 μM; peptide 10 μM; enzyme pre-incubated 15 min at 15° C. with inhibitor
T2 construct: purchased UBI, Upstate Biotech, Inc
T2 sequence (P06239 whole entry): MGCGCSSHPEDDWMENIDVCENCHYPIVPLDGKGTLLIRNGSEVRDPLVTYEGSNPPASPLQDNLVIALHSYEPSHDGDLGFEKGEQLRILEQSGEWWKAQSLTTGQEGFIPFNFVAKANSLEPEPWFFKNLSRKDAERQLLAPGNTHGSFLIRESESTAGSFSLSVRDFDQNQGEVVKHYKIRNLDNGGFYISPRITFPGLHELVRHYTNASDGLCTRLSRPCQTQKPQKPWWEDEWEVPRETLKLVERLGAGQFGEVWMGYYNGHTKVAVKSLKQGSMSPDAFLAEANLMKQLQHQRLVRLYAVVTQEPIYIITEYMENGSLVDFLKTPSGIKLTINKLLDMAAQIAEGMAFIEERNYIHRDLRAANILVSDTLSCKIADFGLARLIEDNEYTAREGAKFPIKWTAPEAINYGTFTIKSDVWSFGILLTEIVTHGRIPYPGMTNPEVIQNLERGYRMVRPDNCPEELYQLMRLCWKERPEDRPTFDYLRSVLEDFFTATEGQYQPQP
From the text: The activity of the compounds according to this invention as protein kinase inhibitors, in particular for the src-family tyrosine kinases, was shown by using the following assay.
as §1
Eu-labelled phosphotyrosine antibody:—for Lck Cisbio Mab PT66-K, • for Src EG&G Wallac PT66 Eu-W1024 (all commercially available).
as §2
as §3, with “purification. The purification yielded 12.2 mg RP-HPLC single peak pure blue material (lyophilisate). The identity was proven by MALDI mass spectroscopy [2720.0]. • Enzymes: Upstate Lck (p56^lck, active), Upstate Src (p60^c-src, partially purified) were purchased from UBI, Upstate Biotech, Inc. Time-resolved Fluorescence Assay: Reader: Perkin Elmer, Wallac Viktor 1420-040 multilabel counter; Liquid handling system: Beckman Coulter, Biomek 2000.” for “purification.”
as §4, §5, §6

Compound | IC50 [1] [nM] | IC50 [2] [nM]
O=C(Nc1ccc(Cl)c(C(=O)Nc2cnc3[nH]c(-c4ccccc4)nc3c2)c1)c1ccc(N2CCOCC2)cc1 [Example 2-1, 2-Chloro-5-(4-morpholin-4-yl-benzoylamino)-N-(2-phenyl-3H-imidazo[4,5-b]pyridin-6-yl)-benzamide] | 10 to 100 | 10 to 100
Cc1ccc(NC(=O)/C=C/c2ccncc2)cc1C(=O)Nc1cnc2[nH]c(-c3ccccc3)nc2c1 [Example 1-1, 2-Methyl-N-(2-phenyl-3H-imidazo[4,5-b]pyridin-6-yl)-5-((E)-3-pyridin-4-yl-acryloylamino)-benzamide] | 100 to 1000 | 10 to 100
Cc1ccc(NC(=O)/C=C/c2ccccc2)cc1C(=O)Nc1cnc2[nH]c(-c3ccccc3)nc2c1 [Example 1-4, 2-Methyl-5-[(E)-(3-phenyl-acryloyl)amino]-N-(2-phenyl-3H-imidazo[4,5-b]pyridin-6-yl)-benzamide] | 10 to 100 | 10 to 100
Cc1ccc(NC(=O)/C=C/c2cccnc2)cc1C(=O)Nc1cnc2[nH]c(-c3ccccc3)nc2c1 [Example 1-2, 2-Methyl-N-(2-phenyl-3H-imidazo[4,5-b]pyridin-6-yl)-5-((E)-3-pyridin-3-yl-acryloylamino)-benzamide] | 10 to 100 | 10 to 100
O=C(Nc1ccc(Cl)c(C(=O)Nc2cnc3[nH]c(-c4ccccc4)nc3c2)c1)c1ccccc1 [Example 2-5, 5-Benzoylamino-2-chloro-N-(2-phenyl-3H-imidazo[4,5-b]pyridin-6-yl)-benzamide] | – | 10 to 100
O=C(/C=C/c1ccccc1)Nc1ccc(Cl)c(C(=O)Nc2cnc3[nH]c(-c4ccccc4)nc3c2)c1 [Example 2-2, 2-Chloro-5-[(E)-(3-phenyl-acryloyl)amino]-N-(2-phenyl-3H-imidazo[4,5-b]pyridin-6-yl)-benzamide] | – | 10 to 100
Cc1ccc(NC(=O)c2cccc(-c3ccccc3)c2)cc1C(=O)Nc1cnc2[nH]c(-c3ccccc3)nc2c1 [Example 1-6, Biphenyl-3-carboxylic acid[4-methyl-3-(2-phenyl-3H-imidazo[4,5-b]pyridin-6-ylcarbamoyl)-phenyl]-amide] | 10 to 100 | 100 to 1000
Cc1ccc(NC(=O)c2ccc(N3CCOCC3)cc2)cc1C(=O)Nc1cnc2[nH]c(-c3ccccc3)nc2c1 [Example 1-3, 2-Methyl-5-(4-morpholin-4-yl-benzoylamino)-N-(2-phenyl-3H-imidazo[4,5-b]pyridin-6-yl)-benzamide] | 43 | 64
Cc1ccc(NC(=O)c2ccccc2)cc1C(=O)Nc1cnc2[nH]c(-c3ccccc3)nc2c1 [Example 1-5, 5-Benzoylamino-2-methyl-N-(2-phenyl-3H-imidazo[4,5-b]pyridin-6-yl)-benzamide] | 10 to 100 | 10 to 100
O=C(Nc1ccc(Cl)c(C(=O)Nc2cnc3[nH]c(-c4ccccc4)nc3c2)c1)c1cccc(-c2ccccc2)c1 [Example 2-4, Biphenyl-3-carboxylic acid[4-chloro-3-(2-phenyl-3H-imidazo[4,5-b]pyridin-6-ylcarbamoyl)-phenyl]-amide] | 64 | 200
